The subject of series [1] is HCT-116. In words: Induction of spliceosome function impairment in human HCT-116 cells assessed as increase in CUL4A RI transcript at 1 to 10 uM incubated for 12 hrs by qRT-PCR analysis. The format is functional, cell-based. Particulars: dose 1-10 µM.
In series [2] the test system is HCT-116. The experiment in a line: Induction of spliceosome function impairment in human HCT-116 cells assessed as decrease in ZNF207 exon8-exon9 RNA level at 1 to 10 uM incubated for 12 hrs by qRT-PCR analysis. The format is functional, cell-based. The conditions noted are these: dose 1-10 µM. For orientation: Quantitative PCR measures a nucleic acid by following its amplification.

Series [3] deals with HCT-116. In words: Effect on DCAF15 expression in human HCT-116 cells at 0.1 to 5 uM incubated for 24 hrs by Western blot analysis. Type of series: functional, cell-based. Particulars: dose 0.1-5 µM.
Series [4] has as its system HCT-116. In words: Induction of spliceosome function impairment in human HCT-116 cells assessed as fold decrease in ZNF207 exon8-exon9 RNA level at 1 to 10 uM incubated for 12 hrs by qRT-PCR analysis relative to control. The format is functional. The conditions noted are these: dose 1-10 µM.
The test system of series [5] is HCT-116. In words: Antitumor activity against human HCT-116 cells xenografted in BALB/c nude mouse at 50 mg/kg, po bid treated for 17 days relative to control. Type of series: functional. The conditions noted are these: HCT-116, 408 h, time 17 day, read-out: TGI. For orientation: A xenograft is tissue or cells of one species grown in another, often human tumour cells in immunodeficient mice.

Series [6] deals with HCT-116. In words: Antitumor activity against human HCT-116 cells xenografted in BALB/c nude mouse at 150 mg/kg, po qd treated for 17 days relative to control. Type of series: functional. The conditions noted are these: HCT-116, 408 h, time 17 day, read-out: TGI.
Series [7] in a line: Cmax in ICR mouse at 15 mg/kg, po. The format is ADME, organism-based. Particulars: in vivo.
Series [8] relates to HCT-116. The experiment in a line: Effect on RNA splicing in human HCT-116 cells assessed as CEP192 gene skipping exons at 2 uM incubated for 12 hrs by RNA-seq analysis. Type of series: functional, cell-based.
Series [9] has as its system HCT-116. The experiment in a line: Effect on RNA splicing in human HCT-116 cells assessed as CEP192 gene retention of introns at 2 uM incubated for 12 hrs by RNA-seq analysis. The format is functional, cell-based.
Series [10] has as its system HCT-116. In words: Effect on RNA splicing in human HCT-116 cells assessed as CEP192 gene skipping exons incubated for 12 hrs by PCR analysis. The format is functional, cell-based. Particulars: dose <= 10.0 µM.
The subject of series [11] is HCT-116. In words: Effect on RNA splicing in human HCT-116 cells assessed as CEP192 gene retention of introns incubated for 12 hrs by PCR analysis. Type of series: functional, cell-based. Particulars: dose <= 10.0 µM.
Series [12] relates to HCT-116. The experiment in a line: Effect on RNA splicing in human HCT-116 cells assessed as CEP192 gene skipping exons up to 10 uM by PCR analysis. The format is functional, cell-based. The conditions noted are these: time 1-24 hrs.
In series [13] the test system is HCT-116. The experiment in a line: Effect on RNA splicing in human HCT-116 cells assessed as CEP192 gene retention of introns up to 10 uM by PCR analysis. Type of series: functional, cell-based. Particulars: time 1-24 hrs.
Series [14] relates to K562. In words: Effect on RNA splicing in human K562 cells assessed as CEP192 gene skipping exons incubated for 12 hrs by PCR analysis. The format is functional, cell-based. Particulars: dose 0.1-10 µM.
Series [15] deals with MV4-11. The experiment in a line: Effect on RNA splicing in human MV4-11 cells assessed as CEP192 gene skipping exons incubated for 12 hrs by PCR analysis. The format is functional, cell-based. Particulars: dose 0.1-10 µM.
In series [16] the test system is HL-60. In words: Effect on RNA splicing in human HL-60 cells assessed as CEP192 gene retention of introns incubated for 12 hrs by PCR analysis. Particulars: dose 0.1-10 µM. The format is functional, cell-based.
The test system of series [17] is Kasumi 1. The experiment in a line: Effect on RNA splicing in human Kasumi 1 cells assessed as CEP192 gene skipping exons incubated for 12 hrs by PCR analysis. The format is functional, cell-based. The conditions noted are these: dose 0.1-10 µM.
The test system of series [18] is Kasumi 1. In words: Effect on RNA splicing in human Kasumi 1 cells assessed as CEP192 gene retention of introns incubated for 12 hrs by PCR analysis. The format is functional, cell-based. Particulars: dose 0.1-10 µM.
Series [19] has as its system MOLM-13. In words: Effect on RNA splicing in human MOLM-13 cells assessed as CEP192 gene skipping exons incubated for 12 hrs by PCR analysis. The format is functional, cell-based. The conditions noted are these: dose 0.1-10 µM.
Series [20] has as its system MOLM-13. In words: Effect on RNA splicing in human MOLM-13 cells assessed as CEP192 gene retention of introns incubated for 12 hrs by PCR analysis. The format is functional, cell-based. Particulars: dose 0.1-10 µM.
Series [21] has as its system CEM/C1. The experiment in a line: Effect on RNA splicing in human CEM/C1 cells assessed as CEP192 gene skipping exons incubated for 12 hrs by PCR analysis. Type of series: functional, cell-based. The conditions noted are these: dose 0.1-10 µM.
The subject of series [22] is CEM/C1. In words: Effect on RNA splicing in human CEM/C1 cells assessed as CEP192 gene retention of introns incubated for 12 hrs by PCR analysis. The format is functional, cell-based. Particulars: dose 0.1-10 µM.
Series [23] deals with RS4-11. The experiment in a line: Effect on RNA splicing in human RS4;11 cells assessed as CEP192 gene skipping exons incubated for 12 hrs by PCR analysis. The conditions noted are these: dose 0.1-10 µM. Type of series: functional, cell-based.
Series [24] concerns RS4-11. In words: Effect on RNA splicing in human RS4;11 cells assessed as CEP192 gene retention of introns incubated for 12 hrs by PCR analysis. Type of series: functional, cell-based. The conditions noted are these: dose 0.1-10 µM.
Series [25] can be described thus: Effect on RNA splicing in human K562 cells assessed as number of skipping exons at 2 uM incubated for 12 hrs by RNA-seq analysis. The format is functional.
The nature of series [26]: Effect on RNA splicing in human K562 cells assessed as number of retention of introns at 2 uM incubated for 12 hrs by RNA-seq analysis. The format is functional.
The nature of series [27]: Effect on RNA splicing in human K562 cells assessed as skipping exons at 2 uM incubated for 12 hrs by RNA-seq analysis relative to control. The format is functional.
The nature of series [28]: Effect on RNA splicing in human K562 cells assessed as mutually exclusive exons at 2 uM incubated for 12 hrs by RNA-seq analysis relative to control. Type of series: functional.
The nature of series [29]: Effect on RNA splicing in human K562 cells assessed as retention of introns at 2 uM incubated for 12 hrs by RNA-seq analysis relative to control. Type of series: functional.
Series [30] is described as follows: Effect on RNA splicing in human K562 cells assessed as alternative 3' splice sites at 2 uM incubated for 12 hrs by RNA-seq analysis relative to control. Type of series: functional.
The nature of series [31]: Effect on RNA splicing in human K562 cells assessed as alternative 5' splice sites at 2 uM incubated for 12 hrs by RNA-seq analysis relative to control. Type of series: functional.
In series [32] the test system is K562. The experiment in a line: Antiproliferative activity against human K562 cells assessed as inhibition of cell growth incubated for 4 days by CCK8 assay. The format is functional, cell-based. Particulars: time 4.0 day.
Series [33] deals with MV4-11. The experiment in a line: Antiproliferative activity against human MV4-11 cells assessed as inhibition of cell growth incubated for 4 days by CCK8 assay. The format is functional, cell-based. Particulars: time 4.0 day. In general terms: Formazan colour is commonly taken as a measure of viable cells.
The subject of series [34] is HL-60. In words: Antiproliferative activity against human HL-60 cells assessed as inhibition of cell growth incubated for 4 days by CCK8 assay. Type of series: functional, cell-based. Particulars: time 4.0 day.
The test system of series [35] is Kasumi 1. In words: Antiproliferative activity against human Kasumi 1 cells assessed as inhibition of cell growth incubated for 4 days by CCK8 assay. Type of series: functional, cell-based. Particulars: time 4.0 day.
Series [36] has as its system CEM/C1. In words: Antiproliferative activity against human CEM/C1 cells assessed as inhibition of cell growth incubated for 4 days by CCK8 assay. Particulars: time 4.0 day. Type of series: functional, cell-based.
Series [37] deals with HCT-116. The experiment in a line: Induction of cell cycle arrest in human HCT-116 cells assessed as accumulation at G2/M phase at 1 uM incubated for 72 hrs by PI staining based flow cytometry relative to control. Type of series: functional.
Series [38] has as its system K562. In words: Induction of RBM39 degradation in human K562 cells incubated for 24 hrs by Western blot analysis. The format is cell-based. Particulars: dose 1-10 µM.
The test system of series [39] is MV4-11. The experiment in a line: Induction of RBM39 degradation in human MV4-11 cells incubated for 24 hrs by Western blot analysis. Type of series: cell-based.
Series [40] deals with Kasumi 1. The experiment in a line: Induction of RBM39 degradation in human Kasumi 1 cells incubated for 24 hrs by Western blot analysis. The format is cell-based.
Series [41] concerns MOLM-13. The experiment in a line: Induction of RBM39 degradation in human MOLM-13 cells incubated for 24 hrs by Western blot analysis. Type of series: cell-based.

The source made the active and inactive calls. No cut-off for these calls is given here.

As for `NS(=O)(=O)c1ccc(S(=O)(=O)Nc2cccc3c(Cl)c[nH]c23)cc1` [INDISULAM], the result in the series with HCT-116 [1] and in the series with HCT-116 [2] was Active.
In general, Cmax refers to the highest concentration seen after dosing. For `Cc1ccc(NS(=O)(=O)c2cccc(NC(=O)C(=O)N3CCC[C@@H]3CO)c2)c2[nH]cc(C#N)c12`, the outcome with HCT-116 [3] was inactive. Further, the “fold change (FC)” value with HCT-116 [4] amounted to 10. Further, in the series with HCT-116 [5], the inhibition in vivo at 50 mg/kg was 35%. In the series with HCT-116 [6], the inhibition in vivo at 150 mg/kg is 72%. In series [7], the highest level (Cmax) was 2120 ng/mL. Also, the Activity entry was “Active; Observed Skipping Of Exons 42, 28 And 13” in the series on HCT-116 [8]; “Active; Observed Retention Of Introns Between Exons 27 And 28” in the series with HCT-116 [9]; “Dose-dependent-effect; Observed Skipping Of Exons 42, 28 And 13” in the series with HCT-116 [10]; “Dose-dependent-effect; Observed Retention Of Introns Between Exons 27 And 28” in the series with HCT-116 [11]; “Time-dependent-effect; Observed Skipping Of Exons 42, 28 And 13” in the series on HCT-116 [12]; “Time-dependent-effect; Observed Retention Of Introns Between Exons 27 And 28” in the series with HCT-116 [13]. Also, the Activity entry is “Dose-dependent-effect; Observed Skipping Of Exons 42, 28 And 13” with K562 [14]; “Dose-dependent-effect; Observed Skipping Of Exons 42, 28 And 13” with MV4-11 [15]; “Dose-dependent-effect; Observed Retention Of Introns Between Exons 27 And 28” in the series on HL-60 [16]; “Dose-dependent-effect; Observed Skipping Of Exons 42, 28 And 13” in the series on Kasumi 1 [17]; “Dose-dependent-effect; Observed Retention Of Introns Between Exons 27 And 28” in the series with Kasumi 1 [18]; “Dose-dependent-effect; Observed Skipping Of Exons 42, 28 And 13” in the series on MOLM-13 [19]. For the same compound, the Activity entry in the series with MOLM-13 [20] is “Dose-dependent-effect; Observed Retention Of Introns Between Exons 27 And 28”; in the series on CEM/C1 [21], “Dose-dependent-effect; Observed Skipping Of Exons 42, 28 And 13”; in the series on CEM/C1 [22], “Dose-dependent-effect; Observed Retention Of Introns Between Exons 27 And 28”; in the series on RS4-11 [23], “Dose-dependent-effect; Observed Skipping Of Exons 42, 28 And 13”; with RS4-11 [24], “Dose-dependent-effect; Observed Retention Of Introns Between Exons 27 And 28”; in series [25] it was 12285. Also, the Activity in series [26] is reported as 1454; in [27], 70.6%; in series [28], 10.3%; in [29] it was 8.4%; in series [30], 7.1%; in series [31], 3.6%. The Activity in the series with HCT-116 [37] is 66%; with K562 [38], “Dose-dependent-effect”; in the series with MV4-11 [39], “Dose-dependent-effect”; with Kasumi 1 [40], “Dose-dependent-effect”; in the series on MOLM-13 [41], “Dose-dependent-effect”. The inhibition entry in the series with K562 [32], in the series with MV4-11 [33], in the series with HL-60 [34], in the series on Kasumi 1 [35] and in the series on CEM/C1 [36] was “Active” in each case.
